The numbers were not newly measured in patent US20050159439A1, “Management of postoperative pain” (priority 2001, published 2005), which cites them from elsewhere.

The data set relates to subjects operated on for lumbar disc herniation. The settings on record: 10 mg epidural morphine, lumbar disc herniation surgery.

Regarding `CN1CC[C@]23c4c5ccc(O)c4O[C@H]2[C@@H](O)C=C[C@H]3[C@H]1C5` [morphine], the Pain relief result is “significant pain relief” and the Side effect result is given as “urinary retention was the relevant side effect”.
